According to patent US20030203963A1, “Antimicrobial agent” (priority 2001, published 2003):

How the values were obtained:
[1] = tested on: Lb. sake A10; test: Bioscreen growth inhibition test; type: cell-based, Lactobacillus sake; conditions: for APP level causing significant inhibition / APP level causing total inhibition: BS010411, 24 h at 30° C.
Protocol: (§1) For broth cultures and Bioscreen testing most bacteria were grown in Brain Heart Infusion (BHI, Oxoid, pH 7.4). Lactobacillus sake A10 was grown in de Man, Rogosa, Sharpe medium ([…], Oxoid). Yeasts were grown in Sabouraud Liquid medium (SLM, Oxoid). Most bacteria were cultured at 30° C. Lactic acid bacteria were grown on solid medium in enriched CO2 atmosphere. Clostridium species were grown in Reinforced Clostridial Medium (RCM) at 37° C. anaerobically. Brochothrix thermosphacta fungi and yeasts were grown at 25° C. Fungi were cultured on Malt Extract Agar (MEA, Oxoid).
(§2) An automated Microbiology Reader Bioscreen C was used to measure growth curves of the strains in the presence and absence of APP. The Bioscreen C measures the development of turbidity (i.e. growth) kinetically by vertical photometry in 200 wells of a honeycomb microtitre plate, simultaneously. The system consists of a Bioscreen C analyser, which is an incubator and measurement unit, integrated with a PC, software (BioLink v 5.30), printer and a ‘Honeycomb 2’ cuvette multiwell plate. Growth curve data can be analysed within the BioLink software or exported to programs such as Excel.
Broth culture media were dispensed in 270 μl volumes into the wells as directed. Serial dilutions of a filter-sterilised APP stock solution were then dispensed into the same wells, as appropriate. The wells were inoculated with 30 μl of an appropriately diluted overnight broth culture or spore suspension, to give a final inoculum level of […]. The tests were incubated in the Bioscreen C for either 24 h at 30° C., or 72 h at 25° C. (depending on the micro-organism under investigation) with readings taken every 20 minutes after the trays were shaken. After the incubation period was complete the data were exported to Excel for analysis.

[2] = tested on: Ps. fluorescens; test: Lab media at optimum temperature (summary); type: cell-based, Pseudomonas fluorescens
Protocol: as §1, §2
(§3) Broth culture media were dispensed in 270 μl volumes into the wells as directed. […] (depending on the micro-organism under investigation) with readings taken every 20 minutes after the trays were shaken. […]

[3] = tested on: Salm Typhimurium S29; test: Test in cooked sausage meat slurry; type: cell-based, Salmonella Typhimurium; conditions: for Total inhibition for: cooked sausage meat slurry at 8° C., pH 6.2, TSM010605
Text: 500 g of bologna sausage meat mixture was mixed with 500 g Brain Heart Infusion broth (BHIB) to make a homogeneous slurry. The bologna sausage meat mix comprised (g per kg): lean beef 320; lean pork 202; lard 250; water 40; glucose 5; starch 155; spice mix 3.75; sodium glutamate 0.5; sodium erythorbate 0.545; sodium di-phosphate 3; NaCl 20; sodium nitrite 0.15. 200 g samples of the meat slurry were autoclaved. While the meat was still warm it was re-mixed thoroughly. When the meat had cooled it was inoculated with 2 ml of 10^5 cfu/ml spore or cell suspension, and re-mixed again. Each inoculated meat sample was divided into 3×50 g samples, and 1 ml of either SDW, 2.5% or 5% APP solution (batch number APP 20010215) was added to prepare meat samples containing 0, 500 and 1000 ppm APP. The meat slurry was again shaken thoroughly to ensure even mixing, an initial viable count was taken and the samples incubated at 8° C. Samples were taken at twice-weekly intervals. The pH of the sausage meat slurry was 6.2.

[4] = tested on: Salm Typhimurium S29; test: Test in cooked minced beef slurry; type: cell-based, Salmonella Typhimurium
Protocol: (§4) 1 kg of minced beef, purchased from the local butcher, was mixed with 1 litre of BHI. 200 g portion of this meat slurry was autoclaved. When the meat had cooled, the pH was recorded (pH 6.24), and each pot was inoculated with 2.0 ml of 10^5 spores or cells and the meat re-mixed thoroughly. Each inoculated 200 g pot was distributed as 3×50 g portions. To each pot 1 ml of SDW, 5% or 10% APP (Batch No. APP20010215) was added, and the meat was again mixed thoroughly. An initial viable count was performed, the meat was incubated at 8° C. and sampled twice weekly. The pH of the cooked minced beef slurry was 6.24.

[5] = tested on: Salmonella sp. S19; test: Bioscreen growth inhibition test; type: cell-based; conditions: BS010510, 24 h/30, APP20010213
Protocol: as §1, §2, §3

[6] = cited from earlier work
[7] = tested on: L. monocytogenes 272; test: Test in cooked minced beef slurry; type: cell-based, Listeria monocytogenes
Protocol: as §4

[8] = tested on: Ps. fluorescens 327; test: Chicken soup trial at 8° C.; type: cell-based, Pseudomonas fluorescens; conditions: chicken soup at 8° C., TCSM010521, APP215
Text: A local supermarket brand of cream of chicken soup was used as a model food system. 600 g packs were purchased from the local supermarket. This was a ‘fresh home-made type’ of soup that was stored in the chill cabinet, with a short shelf life. It was chosen because it is a rich, nutritious food system containing a range of food components including meat, dairy and vegetable.
Ingredients were labelled as: chicken stock (water, duck fat, chicken, salt, flavourings, yeast extracts, pork gelatine, glucose syrup, vegetable concentrate, milk protein, sugar, malto-dextrin, vegetable oil, citric acid, lactose, chicken fat), ilk, chicken (9%), cream (8%), onion, potato, vegetable oil, modified maize starch, wheat flour, lemon juice, salt, white pepper. pH 5.912. Protein: 3.3%; carbohydrate: 4.7%; fat: 7.2%; fibre: 0.2%; sodium: 0.1%
For the test the soup was mixed 2:1 in water (to facilitate sampling and mixing) and sterilised by autoclaving at 121° C. for 15 minutes. For each experiment the pH of the soup was recorded; this was between pH 5.79-5.88.
For TCS010521/8 (incubated at 8° C.), samples were prepared in 27.8 g quantities. 1.5 g of an APP stock solution was added, and the tests inoculated with 0.3 ml of a suitably diluted cell or spore suspension to give a final inoculum of ca. 10^3 cfu/g. APP was tested at 0, 500 and 1000 ppm, and batch number APP20010213 (at 169 mg/ml) was used. The tests were sampled by viable count and then incubated at 8° C. and tested on a twice-weekly basis.

[9] = 2000 ppm, minced beef slurry at 8° C., pH 6.24, TCM010619

Structure (SMILES): O=C1CC(CO)OC=C1O (stereo not shown) [APP, Ascopyrone P]
- APP level causing significant inhibition ([1]; APP20010213): 250 ppm
- APP level causing total inhibition ([1]; APP20010213): 500 ppm
- APP level causing significant inhibition ([1]; APP20010215): 250 ppm
- APP level causing total inhibition ([1]; APP20010215): 500 ppm
- Total inhibition (effect on growth of target organism by 2000 ppm APP) ([1]; Lab media at optimum temperature): Lb. sake
- Total inhibition (effect on growth of target organism by 2000 ppm APP) [2]: Ps. fluorescens
- Total inhibition for ([3]; 500 ppm): Total inhibition by 500 for 25 d
- Total inhibition for ([3]; 1000 ppm): Total inhibition by 1000 ppm for >38 d
- Total inhibition (effect on growth of target organism by APP) ([3]; Cooked sausage meat slurry at 8° C. pH 6.2, (1000)): S. Typhimurium
- Total inhibition for [4, 9]: Total inhibition by 2000 ppm for >44 d
- Total inhibition (effect on growth of target organism by 2000 ppm APP) ([4]; Cooked minced beef slurry at 8° C. pH 6.24): S. Typhimurium
- APP level causing total inhibition [5]: 4000 ppm
- pH at which stable ([6]; less stable at increasing pH): 1.5-5.5
- half-life ([6]; pH 11-12.5): 5 h
- Effect on growth [7, 9]: No significant inhibition by 2000 ppm
- No inhibition (effect on growth of target organism by 2000 ppm APP) ([7]; Cooked minced beef slurry at 8° C. pH 6.24, organism printed in brackets): (L. monocytogenes)
- Effect on growth ([8]; 500 ppm): Little effect with 500 ppm
- Counts undetectable ([8]; 1000 ppm): At 1000 ppm counts undetectable >7 d
- Total inhibition for ([8]; 1000 ppm): Total inhibition by 1000 ppm for >27 days.
